Values of other authors as cited in patent publication US8703192B2, “Dosage form containing pantoprazole as active ingredient” (Takeda GmbH, priority 2003, dated 2014).

Settings: in comparison to pantoprazole itself or to pantoprazole sodium sesquihydrate

In the case of `COc1ccnc(C[S+]([O-])c2nc3cc(OC(F)F)ccc3[n-]2)c1OC.COc1ccnc(C[S+]([O-])c2nc3cc(OC(F)F)ccc3[n-]2)c1OC.O.O.[Mg+2]` (stereo not shown) [Magnesium bis[5-[difluoromethoxy]-2-[[3,4-dimethoxy-2-pyridinyl]-methyl]sulfinyl]-1H-benzimidazolide]dihydrate], the stability properties is given as “improved stability properties”.
